# Reference: patent publication US20020045780A1, “Biologically active spermidine analogues, pharmaceutical compositions and methods of treatment” (priority 1997, published 2002)
# Entries after “also recorded” stand apart in the source; their conditions may differ. Where a name gives a salt, the structure may show the parent alone. Read-outs that look alike come from different tables or passages of the source.
# Key:
# L1210 cells [1] = test: L1210 growth inhibition, IC50 determination; format: cell-based, murine; details: Mus musculus
# Description: Murine L1210 leukemia cells (ATCC CCL 219) were maintained in logarithmic growth in RPMI-1640 medium containing 10% fetal calf serum or a semi-synthetic equivalent, NuSerum, 2% HEPES-MOPS buffer and 1 mM aminoguanidine.
# L1210 cells [2] = test: Polyamine pool analysis in L1210 cells; format: cell-based, murine; details: for activity at 100 µM / activity at 500 µM / activity at 0.9 µM / activity at 4.5 µM: Mus musculus; for activity at 100 µM / activity at 500 µM / activity at 0.9 µM / activity at 4.5 µM / Put / Spd: % of untreated control; for Analogue: intracellular amount; for Put / Spd: Trihydrochloride
# Description: The following guidelines were adopted for studying the impact of the analogues on polyamine pools (Table 2). The measurements were made after a 48-hour exposure to the analogue, and two different concentrations of analogue were evaluated in each case.
# (§1) The cells were washed twice with cold RPMI-1640, and the pellet was treated with 0.6 N HClO4 (1 ml/10^7 cells). Polyamine contents of the perchloric acid extracts were quantitated by HPLC of the DANSYL derivatives [Bergeron et al, J. Med. Chem., Vol. 37, supra].
# [3] = test system: spermidine/spermine acetyltransferase (SSAT); test: SSAT activity in treated L1210 cells; format: cell-based, murine; details: L1210, 10 μM at 48 hours (triamine analogues)
# Description: Spermidine/spermine N^1-acetyltransferase activity was based on quantitation of [^14C]-N^1-acetylspermidine formed by acetylation of SPD with [^14C] acetyl coenzyme A according to the method of Libby et al [Biochem. Pharmacol., Vol. 38, supra]. Cells treated with DENSPM were positive controls.
# L1210 cells [4] = test: Metabolic transformation of polyamine analogues by L1210 cells; format: in vitro ADME, murine; details: 48 hours, 100 μM analogue
# Description: as §1
# [5] = test system: polyamine transport apparatus; test: Competitive uptake determination: inhibition of [3H]spermidine transport into L1210 cells; format: cell-based, murine; details: analogue inhibition of spermidine transport
# Description: The ability of the norspermidines, spermidines, homospermidines, 4,5- and 5,5-triamines to compete with radiolabeled SPD for uptake was evaluated (Table 1). The general trend is that the terminally alkylated triamines have higher Ki values than the unalkylated triamines and are thus less easily taken up by the cell. […] This is not completely true with the norspermidines and the 5,5 triamines. The relationship holds with methyl and ethyl but not for the propyl of the latter two systems. Finally, the number of methylenes separating the amines plays a role in determining polyamine uptake properties. In general the effectiveness with which the analogues compete for uptake is spermidines≈homospermidines>4,5 triamines>5,5 triamines>norspermidine.
# The polyamine derivatives were studied for their ability to compete with [^3H]-SPD for uptake into L1210 cells [Bergeron et al, J. Med. Chem., Vol. 37, supra]. Lineweaver-Burk plots indicated a simple competitive inhibition with respect to SPD.
# [6] = test system: S-adenosylmethionine decarboxylase (AdoMetDC); test: AdoMetDC activity in treated L1210 cells; format: cell-based, murine; details: L1210, 1 μM at 6 hours
# Description: (§2) On the basis of these studies, it was elected to evaluate the impact of the triamines on ODC and AdoMetDC at 4 and 6 hours, respectively.
# (§3) ODC and AdoMetDC activities were determined as ^14CO2 released from [^14C]-carboxyl-labeled L-ornithine [Seely et al, “Ornithine Decarboxylase (Mouse Kidney),” Methods Enzymol., Vol. 94, pages 158-161 (1983)] or S-adenosyl-L-methionine [Pegg et al, “S-Adenosylmethionine Decarboxylase (Rat Liver),” Methods Enzymol., Vol. 94, pages 234-239 (1983)], respectively. Included in each assay were untreated L1210 cells as controls, as well as cells treated with DEHSPM, a drug having a known reproducible effect on each enzyme, as positive controls.
# [7] = test system: ornithine decarboxylase (ODC); test: ODC activity in treated L1210 cells; format: cell-based, murine; details: L1210, 1 μM at 4 hours
# Description: as §2, §3
# L1210 cells [8] = details: intracellular amount, 48 hours, cited from earlier work
# [9] = L1210, 48 h, L1210, 48 hour exposure, read-out: IC50 48 hour
# [10] = L1210, 96 h, L1210, 96 hour exposure, read-out: IC50 96 hour
# [11] = L1210, 48 h, 100 μM, read-out: Put
# [12] = L1210, 48 h, 100 μM, read-out: Spd
# [13] = L1210, 48 h, 100 μM, read-out: Spm
# [14] = L1210, 48 h, 500 μM, read-out: Put
# [15] = L1210, 48 h, 500 μM, read-out: Spd
# [16] = L1210, 48 h, 500 μM, read-out: Spm
# [17] = 500 μM, 48 hours, listed as (5,5)
# [18] = 500 μM, 48 hours, listed as (4,5)
Structure (SMILES),IC50 (L1210 cells [1]; [9]) [µM],IC50 (L1210 cells [1]; [10]) [µM],activity at 100 µM (L1210 cells [2]; [11]) [%],activity at 100 µM (L1210 cells [2]; [12]) [%],activity at 100 µM (L1210 cells [2]; [13]) [%],activity at 500 µM (L1210 cells [2]; [14]) [%],activity at 500 µM (L1210 cells [2]; [15]) [%],activity at 500 µM (L1210 cells [2]; [16]) [%],"Analogue (L1210 cells [2]; 100 μM, 48 hours) [nmol/10^6 cells]","Analogue (L1210 cells [2]; 500 μM, 48 hours) [nmol/10^6 cells]","SSAT activity, percent of untreated control [3]",Parent drug as % of total drug in the cell (L1210 cells [4]) [%],Parent drug in L1210 cells (L1210 cells [4]) [pmols/10^6],Ki [5] [µM],"AdoMetDC activity, percent of untreated control [6]","ODC activity, percent of untreated control [7]",further results
"CNCCCNCCCNC [DMNSPD, N^1,N^7-Dimethylnorspermidine Trihydrochloride]",> 100,3.5 to 6,0,9,58,0,6 to 15,< 50,5.00,5.51,250% of untreated control,100,5000,60,41% of untreated control,17% of untreated control,N-Monodealkylation (result in words) (L1210 cells [4]): no N-demethylation
"NCCCNCCCN [NSPD, N—(3-aminopropyl)-1,3-propanediamine, reference compound]",0.9,0.5,–,–,–,–,–,–,–,–,150% of untreated control,–,–,7.2,62% of untreated control,11% of untreated control,"activity at 0.9 µM (L1210 cells [2]; L1210, 0.9 μM, 48 hours, read-out: Put): 38%; activity at 0.9 µM (L1210 cells [2]; L1210, 0.9 μM, 48 hours, read-out: Spd): 44%; activity at 0.9 µM (L1210 cells [2]; L1210, 0.9 μM, 48 hours, read-out: Spm): 113%; activity at 4.5 µM (L1210 cells [2]; L1210, 4.5 μM, 48 hours, read-out: Put): 0%; activity at 4.5 µM (L1210 cells [2]; L1210, 4.5 μM, 48 hours, read-out: Spd): 12%; activity at 4.5 µM (L1210 cells [2]; L1210, 4.5 μM, 48 hours, read-out: Spm): 83%; Analogue (L1210 cells [2]; 0.9 μM, 48 hours): 1.09 nmol/10^6 cells; Analogue (L1210 cells [2]; 4.5 μM, 48 hours): 2.14 nmol/10^6 cells"
"NCCCCNCCCCN [HSPD, Homospermidine Trihydrochloride]",> 100,1.7 to 4,–,–,–,–,–,–,3.58,4.44,430% of untreated control,–,–,3.4,54% of untreated control,11% of untreated control,"activity at 100 µM (L1210 cells [2]; L1210, 100 μM, 48 hours, read-out: Put): 0%; activity at 100 µM (L1210 cells [2]; L1210, 100 μM, 48 hours, read-out: Spd): 4%; activity at 100 µM (L1210 cells [2]; L1210, 100 μM, 48 hours, read-out: Spm): 32%; activity at 500 µM (L1210 cells [2]; L1210, 500 μM, 48 hours, read-out: Put): 0%; activity at 500 µM (L1210 cells [2]; L1210, 500 μM, 48 hours, read-out: Spd): 2%; activity at 500 µM (L1210 cells [2]; L1210, 500 μM, 48 hours, read-out: Spm): 21%"
"CCNCCCNCCCN [MENSPD, monoethylnorspermidine]",> 100,> 100,–,–,–,–,–,–,–,–,390% of untreated control,78.2,3051,34,58% of untreated control,42% of untreated control,"Elaboration to tetraamine (result in words) (L1210 cells [4]; listed as ME-[3,3]): no evidence of a tetraamine elaboration metabolite; also recorded: no elaboration of N-Monoalkyl [3,3]"
"CCCNCCCCNCCCCN [MPHSPD, N^1-Propylhomospermidine Trihydrochloride]",100,0.5 to 0.7,0,2,82,0,0,66,5.16,5.86,570% of untreated control,–,–,5,59% of untreated control,20% of untreated control,–
"CCCNCCCCNCCCNCCC [DPSPD, N^1,N^8-Dipropylspermidine Trihydrochloride]",> 100,30 to 35,6,35,135,0,~10,99,3.26,3.69,1030% of untreated control,90.1,3260,25.6,–,75% of untreated control,–
"NCCCCCNCCCCCN [5,5-Triamine, 1,7,13-Triazatridecane Trihydrochloride]",~100,0.3 to 0.5,0,0,33,0,0,20,2.58,2.50,90% of untreated control,–,–,13.8,88% of untreated control,16% of untreated control,Put (L1210 cells [2]; [17]): below detectable level; Spd (L1210 cells [2]; [17]): below detectable level
CCNCCCNCCCCNCCCN [MESPM],–,–,–,–,–,–,–,–,–,–,–,–,–,–,–,–,"Analogue, corresponding tetraamine (in parentheses) (L1210 cells [8]; 100 μM): (1.24) nmol/10^6 cells; Analogue, corresponding tetraamine (in parentheses) (L1210 cells [8]; 500 μM): (1.23) nmol/10^6 cells"
"NCCCCCNCCCCN [4,5-Triamine, 1,6,12-Triazadodecane Trihydrochloride]",> 100,0.15 to 0.2,0,1,53,0,0,35,3.02,3.20,410% of untreated control,–,–,1.4,57% of untreated control,19% of untreated control,Put (L1210 cells [2]; [18]): below detectable level; Spd (L1210 cells [2]; [18]): below detectable level
